Test results reported in patent US20260070945A1, “MACROCYCLIC IMMUNOMODULATORS” (Bristol-Myers Squibb Company, priority 2022, published 2026).
pIC50: −log10 of the molar value. *1 amine or outer side, *2 acyl side, *3 side chain or, on linkers, in order; H or OH if unused. Where a SMILES comes first, the peptide text is derived from it. Bridges are numbered along the chain shown (N, C = ends). [ ]: non-standard residue; d: D form. The star is where a group is joined. ξ: configuration not given here. Phe(3-CF3) = N[C@@H](Cc1cccc(C(F)(F)F)c1)C(=O)O; Phe(4-COOH) = N[C@@H](Cc1ccc(C(=O)O)cc1)C(=O)O; Bip = N[C@@H](Cc1ccc(-c2ccccc2)cc1)C(=O)O; γGlu = O=C(O)[C@H](CCC(=O)[*:2])N[*:1]; NH(CH2)12COOH = O=C(O)CCCCCCCCCCCCN*; ξγGlu = O=C(O)C(CCC(=O)[*:2])N[*:1]; Val(3-OH) = CC(C)(O)[C@H](N)C(=O)O; Cha = N[C@@H](CC1CCCCC1)C(=O)O; Cit = NC(=O)NCCC[C@H](N)C(=O)O; Carboxymethyl = O=C(O)C*; NMeA = CN[C@@H](C)C(=O)O; Dab = NCC[C@H](N)C(=O)O; AEEA = NCCOCCOCC(=O)O

biological target: T1, PD-1/PD-L1 interaction (PE-labeled human PD-L1-Ig binding to Jurkat cell line over-expressing human PD-1) (Homo sapiens, UniProt Q15116); assay: Jurkat-PD-1 Cell Binding High-Content Screening Assay (CBA); conditions: Jurkat-hPD-1 cells, PE-labeled PD-L1-Ig 20 nM final; read-out: Jurkat HPD1 PDL1 IC50
T1 construct: expressed in transfected cells; host or cells: Jurkat
T1 sequence (Q15116 25-288): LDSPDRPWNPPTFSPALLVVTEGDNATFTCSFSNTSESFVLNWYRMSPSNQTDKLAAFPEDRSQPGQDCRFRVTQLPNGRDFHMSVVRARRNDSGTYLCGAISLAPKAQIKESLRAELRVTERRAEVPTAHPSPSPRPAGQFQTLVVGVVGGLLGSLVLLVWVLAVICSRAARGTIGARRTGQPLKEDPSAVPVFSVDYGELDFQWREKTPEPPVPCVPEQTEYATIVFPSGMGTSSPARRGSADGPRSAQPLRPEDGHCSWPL
Method in brief: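 Compound is added first to the PD-1-expressing Jurkat cells and held 2 h at 37 °C in serum-containing DMEM. The fluorescent PD-L1 fusion follows at 20 nM final for 1 h. Fixed, Hoechst-stained cells are then imaged for bound label.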

Row | pIC50 | Compound
1 | 7.82 | COC[C@@H]1NC(=O)CSC[C@@H](C(=O)N[C@@H](CCN)C(=O)NCCOCCOCC(=O)N[C@@H](CCC(=O)NCCOCCOCC(=O)NCCCCCCCCCCCCC(=O)O)C(=O)O)NC(=O)[C@H](CCC(=O)O)NC(=O)[C@H](C(C)C)NC(=O)[C@H](CC2CCCCC2)NC(=O)[C@H](CCN)NC(=O)[C@@H](CC(C)C)NC(=O)[C@H](C)N(C)C(=O)[C@H](CCC(N)=O)NC(=O)[C@H](Cc2ccc(-c3ccccc3)cc2)NC(=O)[C@H](Cc2ccc(C(=O)O)cc2)NC(=O)[C@H](Cc2cccc(C(F)(F)F)c2)NC(=O)[C@H](CC(=O)O)NC(=O)[C@H](Cc2ccc(OCC(=O)O)cc2)NC1=O [Example 1163] ({CH2CO}-S(Me)Y(Carboxymethyl)D[Phe(3-CF3)][Phe(4-COOH)][Bip]Q[NMeA][dL][Dab][Cha]VEC[Dab][AEEA][γGlu][AEEA]-{NH(CH2)12COOH}; thioether N-14)
2 | 8.05 | COC[C@@H]1NC(=O)CSC[C@@H](C(=O)N[C@@H](CCN)C(=O)NCCOCCOCC(=O)N[C@@H](CCC(=O)NCCOCCOCC(=O)NCCCCCCCCCCCCC(=O)O)C(=O)O)NC(=O)[C@H](CO)NC(=O)[C@H](C(C)(C)O)NC(=O)[C@H](CC2CCCCC2)NC(=O)[C@H](CCN)NC(=O)[C@@H](CC(C)C)NC(=O)[C@H](C)N(C)C(=O)[C@H](CCC(N)=O)NC(=O)[C@H](Cc2ccc(-c3ccccc3)cc2)NC(=O)[C@H](Cc2ccc(C(=O)O)cc2)NC(=O)[C@H](Cc2cccc(C(F)(F)F)c2)NC(=O)[C@H](CC(=O)O)NC(=O)[C@H](Cc2ccc(OCC(=O)O)cc2)NC1=O [Example 1164] ({CH2CO}-S(Me)Y(Carboxymethyl)D[Phe(3-CF3)][Phe(4-COOH)][Bip]Q[NMeA][dL][Dab][Cha][Val(3-OH)]SC[Dab][AEEA][γGlu][AEEA]-{NH(CH2)12COOH}; thioether N-14)
3 | 7.66 | COC[C@@H]1NC(=O)CSC[C@@H](C(=O)N[C@@H](CCN)C(=O)NCCOCCOCC(=O)N[C@@H](CCC(=O)NCCOCCOCC(=O)NCCCCCCCCCCCCC(=O)O)C(=O)O)NC(=O)[C@H](CCCCNC(C)=O)NC(=O)[C@H](C(C)(C)O)NC(=O)[C@H](CC2CCCCC2)NC(=O)[C@H](CCN)NC(=O)[C@@H](CC(C)C)NC(=O)[C@H](C)N(C)C(=O)[C@H](CCC(N)=O)NC(=O)[C@H](Cc2ccc(-c3ccccc3)cc2)NC(=O)[C@H](Cc2ccc(C(=O)O)cc2)NC(=O)[C@H](Cc2cccc(C(F)(F)F)c2)NC(=O)[C@H](CC(=O)O)NC(=O)[C@H](Cc2ccc(OCC(=O)O)cc2)NC1=O [Example 1165] ({CH2CO}-S(Me)Y(Carboxymethyl)D[Phe(3-CF3)][Phe(4-COOH)][Bip]Q[NMeA][dL][Dab][Cha][Val(3-OH)]K(Ac)C[Dab][AEEA][γGlu][AEEA]-{NH(CH2)12COOH}; thioether N-14)
4 | 7.83 | COC[C@@H]1NC(=O)CSC[C@@H](C(=O)N[C@@H](CCN)C(=O)NCCOCCOCC(=O)NC(CCC(=O)NCCOCCOCC(=O)NCCCCCCCCCCCCC(=O)O)C(=O)O)NC(=O)[C@H](CCCCNC(C)=O)NC(=O)[C@H](C(C)(C)O)NC(=O)[C@H](CC2CCCCC2)NC(=O)[C@H](CCN)NC(=O)[C@@H](CC(C)C)NC(=O)[C@H](C)N(C)C(=O)[C@H](CCCNC(N)=O)NC(=O)[C@H](Cc2ccc(-c3ccccc3)cc2)NC(=O)[C@H](Cc2ccc(C(=O)O)cc2)NC(=O)[C@H](Cc2cccc(C(F)(F)F)c2)NC(=O)[C@H](CC(=O)O)NC(=O)[C@H](Cc2ccc(OCC(=O)O)cc2)NC1=O (stereo partly drawn) [Example 1168] ({CH2CO}-S(Me)Y(Carboxymethyl)D[Phe(3-CF3)][Phe(4-COOH)][Bip][Cit][NMeA][dL][Dab][Cha][Val(3-OH)]K(Ac)C[Dab][AEEA][ξγGlu][AEEA]-{NH(CH2)12COOH}; thioether N-14)
